Assay [1] relates to C57BL6/J mice. Put plainly: Fatty liver in mice fed high unsaturated fat diet, liver tissue and H & E staining. Format: in vivo, mouse. Particulars: 45% UFAs diet 8 weeks, imiquimod 0.1 mg/kg injected twice a week. Here is the method: (§1) C57BL6/J mice (Daehan Biolink, Daejeon, Korea) that induced obesity with feed containing 45% UFAs for 8 weeks and a knockout mouse (TLR7 KO) from Dr. Akira (Osaka University, Suita, Japan) in which TLR7 is not inherently present, were used. For this purpose, imiquimod was injected twice a week at a concentration of 0.1 mg/kg, while fatty liver model was made by feeding only high unsaturated fat diet (UFAs diet with 45% of the calories, Daehan Biolink, Daejeon, Korea) for 8 weeks.
As a result of H & E staining of tissue sections, balloon, a sign of fat accumulation between cells and cells, was found in UFAs fed mice, which was confirmed to be improved by imiquimod injection.

Assay [2] relates to Mouse hepatocytes. Put plainly: Fat accumulation in UFAs-treated mouse hepatocytes (oil-red-o staining, absorbance at 540 nm). Format: cell-based. Conditions: imiquimod 10 μg/ml 1 hour before UFAs, 48 hours, vs group without treatment. The procedure:
(§2) The imiquimod purchased in Example 1 was tested in cells. Mouse hepatocytes were obtained by cellizing liver tissues isolated from normal C57BL6/J mice and TLR7 KO mice lacking the TLR7 gene and fat accumulation was induced by treatment with 10 mM of unsaturated fatty acid (UFAs) mixed with arachidonic acid (Sigma, USA) and oleic acid (Sigma, USA) 1:1.
(§3) Cells were incubated at 37° C., 5% of CO2. DMEM (Dulbecco's modified Eagle's medium) containing 10% fetal bovine serum (FBS) and antibiotic (penicillin/streptomycin; Gibco, USA) was used as the cell culture medium. Every two days, the surface of the cultured cells was washed with phosphate buffered saline (PBS) and cells were isolated by treatment with 0.5% trypsin and then subcultured.
(§4) The imiquimod was treated at the concentration of 10 μg/ml 1 hour before the start of the experiment. UFAs were then added and the fat accumulation was assessed after 48 hours.
In order to confirm that imiquimod inhibits the fat accumulation effect in hepatocytes, the cells were cultured for 48 hours after the reagent treatment according to the method of Example 2 above. The cells were stained with an oil-red-o reagent (Lifeline Cell Technology, Carlsbad, Calif., USA) and the accumulation of fat was visually evaluated (FIG. 1).

Assay [3] deals with LC3A/B and IGF-1. Put plainly: LC3A/B and IGF-1 protein expression in liver tissue of fatty liver mice. Format: in vivo, mouse. Particulars: fatty liver induced by UFAs, imiquimod 0.1 mg/kg twice a week, proteins from liver tissue. The procedure:
as §1
Autophagosome associated with congenital immunity, and expression of IGF-1 associated with fatty liver development were compared and evaluated with proteins isolated from liver tissue. Similar to the protein isolated from the hepatocytes, and expression of TLR7 and its downstream transcript Myd88 was also confirmed, and as a result, we confirmed that imiquimod affects the expression of LC3A/B, an autophagosome marker, and IGF-1, a hepatocyte-producing protein, through TLR7 hyperactivity.

Assay [4] relates to C57BL6/J mice. Put plainly: Triglyceride and cholesterol in liver tissue of fatty liver mice (ELISA). The assay is classed as in vivo, mouse. Particulars: UFAs feed 8 weeks, imiquimod 0.1 mg/kg twice a week. The procedure: as §1
The liver tissues separated from the mouse were finely crushed to prepare analytical samples, and the levels of triglyceride and cholesterol were measured using Enzyme Linked ImmunoSorbent Assay (ELISA) (FIG. 7).

For assay [5], the system named is SREBP-1, FAS, PPAR-γ, and aP2. Description: Real-time RT-PCR of fat-induced genes in liver tissue of fatty liver mice. Format: in vivo, mouse. Conditions: UFAs feed 8 weeks, imiquimod 0.1 mg/kg twice a week, liver mRNA. Here is the method:
as §1
Fat-induced genes such as SREBP-1, FAS, PPAR-γ, and aP2 were increased in liver tissues from liver-derived mice fed UFAs compared to the control group.

Assay [6] deals with C57BL6/J mice. Description: Serological analysis of fatty liver mice (AST, ALT, triglyceride, total cholesterol). Format: in vivo, mouse. Conditions: UFAs feed 8 weeks, imiquimod 0.1 mg/kg twice a week. Here is the method:
as §1

For assay [7], the system named is LC3A/B and IGF-1. Description: LC3A/B and IGF-1 protein levels in UFAs-treated mouse hepatocytes. The assay is classed as cell-based. Conditions: proteins isolated from hepatocytes, imiquimod treatment. The procedure:
as §2, §3, §4
In FIG. 3, expression of autophagosome associated with congenital immunity and IGF-1 associated with fatty liver development was compared and evaluated. According to recently published international journals, It has been reported that as the expression of LC3A/B, an indicator of autophagosome increases, fatty liver improves, and as IGF-1 is inhibited, the fatty liver improves.

In assay [8] the test system is SREBP-1, FAS, aP2 and PPARγ gene expression. Put plainly: Real time RT-PCR of fat-related genes in UFAs-treated mouse hepatocytes. The assay is classed as cell-based. Particulars: imiquimod 10 μg/ml. The procedure: as §2, §3, §4
To determine the level of RNA expression at the gene level of fatty acid synthase (FAS), SREBP-1 (sterol regulatory element binding protein-1), PPARγ (peroxisome proliferator-activated receptor), and aP2 (fatty acid binding protein 4), real time RT-PCR (ABI Step One Plus Sequence System, Applied Biosystems, Singapore) was performed. The PPARγ and FAS are directly related to fat metabolism, and since the metabolism is regulated by the aP2 and SREBP-1 factor, it was determined whether imiquimod affects the factor.
From the above results, it was confirmed that imiquimod inhibited lipid accumulation in hepatocytes through inhibition of SREBP-1, FAS, aP2 and PPARγ gene expression.
(Quantitative PCR measures a nucleic acid by following its amplification.)

`CC(C)Cn1cnc2c(N)nc3ccccc3c21` [imiquimod]: in assay [1], the “balloon (sign of fat accumulation), H & E staining of tissue sections” value is recorded as “improved” and the “development of fatty liver (evaluation of liver tissue)” value is listed as “significant inhibition”. For the same compound, the “level of fat (absorbance at 540 nm)” value in assay [2] was “lower than that in the group without treatment”. Moreover, in assay [3], the “IGF-1 expression in liver tissue” value is reported as “decreased” and the “LC3A/B expression in liver tissue” value was “significantly increased”. Moreover, in assay [4], the “cholesterol level in liver tissue” value is “significant reductions” and the “triglyceride level in liver tissue” value is “significant reductions”. In assay [5], the “FAS gene expression in liver tissue” value was “significantly reduced”, the “PPAR-γ gene expression in liver tissue” value is reported as “significantly reduced”, the “SREBP-1 gene expression in liver tissue” value is “significantly reduced” and the “aP2 gene expression in liver tissue” value was “significantly reduced”. Besides, in assay [6], the “serum ALT level” value was “significantly decreased”, the “serum AST level” value was “significantly decreased”, the serum cholesterol level entry was “significantly reduced” and the serum triglyceride level result is “significantly reduced”. In addition, the IGF-1 protein level entry in assay [7] (IGF-1 increased by UFAs) was “decreases”. The “LC3A/B (indicator of autophagosome) protein level” value in assay [7] (LC3A/B inhibited by UFAs) is “significant increases”. Besides, in assay [8], the “expression of FAS” value was “inhibited the expression”, the “expression of PPARγ” value is “inhibited the expression”, the “expression of SREBP-1” value is “inhibited the expression” and the “expression of aP2” value is on record as “inhibited the expression”.

Values taken from patent US10426769B2, “Pharmaceutical composition for preventing and treating obesity or liver diseases, containg TLR7 agonist” (KNOTUS CO., LTD., priority 2015, dated 2019).
